Test results as given in the supplement of paper PMC10307832.

Columns and labels:
Assay in all cases: relative viability (nuclei count vs DMSO), 5 days (fraction); higher = more cells survive
[1] = compound: O=C(/C=C/c1cccnc1)NCCCCC1CCN(C(=O)c2ccccc2)CC1 [Daporinad] + Nc1ncn([C@H]2C[C@H](O)[C@@H](CO)O2)c(=O)n1 [Decitabine] (partner 2 µM)
How it was run: (§1)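 For relative viability, nuclei counts in treated wells were divided by those in vehicle wells. Lung cancer cell lines had been pin-tool dosed in 1536-well plates the day after seeding and cultured for 5 days, then fixed and stained in one step (final 0.05% Triton X-100, 1% formaldehyde, 1 ug/ml Hoechst) and imaged at 4×. Doses were one drug alone or a fixed anchor-drug dose plus five library-drug doses (not always all listed) in √10 steps, and values are duplicate-plate medians.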

[2] = compound: COc1cc(Nc2ncc(F)c(Nc3ccc4c(n3)NC(=O)C(C)(C)O4)n2)cc(OC)c1OC [R406] + Nc1nc2[nH]cc(CCc3ccc(C(=O)N[C@@H](CCC(=O)O)C(=O)O)cc3)c2c(=O)[nH]1 [Pemetrexed] (partner 0.2 µM)
How it was run: as §1

[3] = compound: O=C(/C=C/c1cccnc1)NCCCCC1CCN(C(=O)c2ccccc2)CC1 [Daporinad] + COc1cccc2cc(-c3nc([C@H]4CC[C@H](C(=O)O)CC4)n4ncnc(N)c34)[nH]c12 [OSI-027] (partner 0.5 µM)
How it was run: as §1

[4] = compound: O=C(/C=C/c1cccnc1)NCCCCC1CCN(C(=O)c2ccccc2)CC1 [Daporinad] + O=C(c1cc(Cc2n[nH]c(=O)c3ccccc23)ccc1F)N1CCN(C(=O)C2CC2)CC1 [Olaparib] (partner 8 µM)
How it was run: as §1

Cell Line	relative viability ([1]; first compound 0.0005 µM)	relative viability ([1]; first compound 0.001581 µM)	relative viability ([1]; first compound 0.005 µM)	relative viability ([1]; first compound 0.01581 µM)	relative viability ([2]; first compound 0.08 µM)	relative viability ([2]; first compound 0.253 µM)	relative viability ([2]; first compound 0.8 µM)	relative viability ([2]; first compound 2.53 µM)	relative viability ([2]; first compound 8 µM)	relative viability ([3]; first compound 0.0005 µM)	relative viability ([3]; first compound 0.001581 µM)	relative viability ([3]; first compound 0.005 µM)	relative viability ([3]; first compound 0.01581 µM)	relative viability ([4]; first compound 0.0005 µM)	relative viability ([4]; first compound 0.001581 µM)	relative viability ([4]; first compound 0.005 µM)	relative viability ([4]; first compound 0.01581 µM)
HCC-44	0.921	0.988	1.04	0.95	0.585	0.621	0.603	0.601	0.726	0.481	0.608	0.462	0.639	0.962	1.06	1.04	0.985
HCC-827	0.322	0.356	0.351	0.336	0.259	0.262	0.264	0.229	0.193	0.78	0.865	0.881	0.74	0.612	0.728	0.608	0.504
NCI-H2342	0.814	0.58	0.67	0.72	0.737	0.835	0.862	0.749	0.774	0.674	0.552	0.602	0.613	0.409	0.456	0.427	0.367
NCI-H2347	0.457	0.721	0.619	0.578	0.402	0.398	0.433	0.395	0.387	0.463	0.377	0.335	0.489	0.543	0.604	0.571	0.416
